Test results reported in patent US4450269A, “Mono-5-substituted-3-chloro-4H-1,2,6-thiadiazin-4-one antifungal agents” (FMC Corporation, priority 1980, dated 1984).
Counter-ions that a name gives are not always drawn.

Experiments:
Cercospora beticola = experiment: whole plant or invertebrate; details: in Beta vulgaris, foliar, 24 h, read-out: Percent Disease Control, curative, sugar beet leaf spot
Fusarium solani = experiment: Soil treatment, bean root rot; type: in vivo; details: Fusarium solani, soil, 336 h; 150 ppm suspension, 3.8 mg active per pot; read-out: Percent Disease Control, seed/soil, bean root rot
Protocol: In a similar manner the soil around a bean seedling was drenched with a sufficient amount of 150 ppm suspension of test chemical to provide 3.8 mg active per pot. Twenty-four hours later the soil was inoculated with a suspension of minced mycelium of Fusarium solani. The inoculated plants were then placed in a greenhouse, evaluated after fourteen days, and percent control of root rot damage calculated. The results, reported in Table III, indicate only a few of the compounds tested are effective in treating Bean Root Rot but that these provide a high degree of control.

Pythium ultimum = experiment: Mycelial growth test; type: cell-based; details: PU; for inhibition at 5 ppm / inhibition at 10 ppm / inhibition at 20 ppm / inhibition at 40 ppm: Globisporangium ultimum, 72 h, read-out: Percent Fungus Growth Inhibition; for Percent Fungus Growth Inhibition: 72 hours, hydrochloride

| SMILES | pest or weed control at 150 ppm (Cercospora beticola) | pest or weed control at 150 ppm, 3.8 mg/pot (Fusarium solani) | inhibition at 5 ppm (Pythium ultimum) | inhibition at 10 ppm (Pythium ultimum) | inhibition at 20 ppm (Pythium ultimum; 20 ppm) | inhibition at 40 ppm (Pythium ultimum; 40 ppm) | Percent Fungus Growth Inhibition (Pythium ultimum; 20 ppm) | Percent Fungus Growth Inhibition (Pythium ultimum; 40 ppm) |
| --- | --- | --- | --- | --- | --- | --- | --- | --- |
| O=c1c(Cl)nsnc1Oc1ccccc1 [Compound 2, 3-chloro-5-phenoxy-4H--1,2,6-thiadiazin-4-one] | 0% | 100% | 0% | 42% | 100% | 100% |  |  |
| Cc1ccc(Oc2nsnc(Cl)c2=O)cc1 [Compound 3, 3-chloro-5-(4-methylphenoxy)-4H--1,2,6-thiadiazin-4-one] | 0% | 80% | 20% | 100% | 100% | 100% |  |  |
| CC(C)(C)c1ccc(Oc2nsnc(Cl)c2=O)cc1 [Compound 4, 3-chloro-5-(4-tert-butylphnoxy)-4H--1,2,6-thiadiazin-4-one] | 0% | 0% | 0% | 20% | 0% | 0% |  |  |
| COc1ccc(Oc2nsnc(Cl)c2=O)cc1 [Compound 5, 3-chloro-5-(4-methoxyphenoxy)4H--1,2,6-thiadiazin-4-one] | 0% | 50% | 0% | 42% | 76% | 100% |  |  |
| CCCCOc1ccc(Oc2nsnc(Cl)c2=O)cc1 [Compound 6, 3-chloro-5-(4-n-butoxyphenoxy)-4H--1,2,6-thiadiazin-4-one] | 0% | 0% | 0% | 0% | 0% | 22% |  |  |
| CCOC(=O)c1ccc(Oc2nsnc(Cl)c2=O)cc1 [Compound 7, 3-chloro-5-(4-ethoxycarbonylphenoxy)-4H--1,2,6-thiadiazin-4-one] | 75% | 98% | 11% | 29% | 80% | 100% |  |  |
| CC(=O)Nc1ccc(Oc2nsnc(Cl)c2=O)cc1 [Compound 8, 5-(4-acetylaminophenoxy)-3-chloro-4H--1,2,6-thiadiazin-4-one] | 0% | 0% | 0% | 100% | 100% | 100% |  |  |
| O=c1c(Cl)nsnc1Oc1ccc([N+](=O)[O-])cc1 [Compound 9, 3-chloro-5-(4-nitrophenoxy)-4H--1,2,6-thiadiazin-4-one] | 75% | 0% | 0% | 80% | 71% | 100% |  |  |
| N#Cc1ccc(Oc2nsnc(Cl)c2=O)cc1 [Compound 10, 3-chloro-5-(4-cyanophenoxy)-4H--1,2,6-thiadiazin-4-one] | 95% | 0% | 11% | 24% | 42% | 64% |  |  |
| O=c1c(Cl)nsnc1Oc1ccc(F)cc1 [Compound 11, 3-chloro-5-(4-fluorophenoxy)-4H--1,2,6-thiadiazin-4-one] | 0% | 0% | 0% | 18% | 82% | 100% |  |  |
| O=c1c(Cl)nsnc1Oc1ccc(Cl)cc1 [Compound 12, 3-chloro-5-(4-chlorophenoxy)-4H--1,2,6-thiadiazin-4-one] | 95% | 0% | 42% | 100% | 100% | 100% |  |  |
| O=c1c(Cl)nsnc1Oc1cccc(Cl)c1 [Compound 13, 3-chloro-5-(3-chlorophenoxy)-4H--1,2,6-thiadiazin-4-one] | 98% | 75% | 31% | 73% | 89% | 100% |  |  |
| O=c1c(Cl)nsnc1Oc1ccccc1Cl [Compound 14, 3-chloro-5-(2-chlorophenoxy)-4H--1,2,6-thiadiazin-4-one] | 0% | 90% | 31% | 53% | 100% | 100% |  |  |
| O=c1c(Cl)nsnc1Oc1ccc(Br)cc1 [Compound 15, 3-chloro-5-(4-bromophenoxy)-4H--1,2,6-thiadiazin-4-one] | 0% | 0% | 47% | 76% | 80% | 76% |  |  |
| O=c1c(Cl)nsnc1Oc1ccc(Cl)c(Cl)c1 [Compound 16, 3-chloro-5-(3,4-dichlorophenoxy)-4H--1,2,6-thiadiazin-4-one] | 95% | 0% | 7% | 11% | 47% | 56% |  |  |
| O=c1c(Cl)nsnc1Oc1ccc(Cl)cc1Cl [Compound 17, 3-chloro-5-(2,4-dichlorophenoxy)-4H--1,2,6-thiadiazin-4-one] | 95% | 0% | 42% | 80% | 100% | 100% |  |  |

| SMILES | pest or weed control at 150 ppm (Cercospora beticola) | pest or weed control at 150 ppm, 3.8 mg/pot (Fusarium solani) | inhibition at 5 ppm (Pythium ultimum) | inhibition at 10 ppm (Pythium ultimum) | inhibition at 20 ppm (Pythium ultimum; 20 ppm) | inhibition at 40 ppm (Pythium ultimum; 40 ppm) | Percent Fungus Growth Inhibition (Pythium ultimum; 20 ppm) | Percent Fungus Growth Inhibition (Pythium ultimum; 40 ppm) |
| --- | --- | --- | --- | --- | --- | --- | --- | --- |
| O=c1c(Cl)nsnc1Oc1c(Cl)cccc1Cl [Compound 18, 3-chloro-5-(2,6-dichlorophenoxy)-4H--1,2,6-thiadiazin-4-one] | 98% |  | 13% | 60% | 100% | 100% |  |  |
| O=c1c(Cl)nsnc1Oc1cccc(Cl)c1Cl [Compound 19, 3-chloro-5-(2,3-dichlorophenoxy)-4H--1,2,6-thiadiazin-4-one] | 0% | 0% | 20% | 80% | 100% | 100% |  |  |
| O=c1c(Cl)nsnc1Oc1cc(Cl)cc(Cl)c1 [Compound 20, 3-chloro-5-(3,5-dichlorophenoxy)-4H--1,2,6-thiadiazin-4-one] | 95% | 75% | 53% | 91% | 91% | 100% |  |  |
| Cc1cccc(Oc2nsnc(Cl)c2=O)c1 [Compound 21, 3-chloro-5-(3-methylphenoxy)-4H--1,2,6-thiadiazin-4-one] | 100% | 0% | 27% | 33% | 100% | 100% |  |  |
| Cc1ccccc1Oc1nsnc(Cl)c1=O [Compound 22, 3-chloro-5-(2-methylphenoxy)-4H--1,2,6-thiadiazin-4-one] | 0% | 0% | 20% | 64% | 96% | 100% |  |  |
| Nc1ccc(Oc2nsnc(Cl)c2=O)cc1 [Compound 27, 5-(4-aminophenoxy)-3-chloro-4H--1,2,6-thiadiazine-4-one hydrochloride] |  |  |  |  |  |  | 0% | 80% |
| O=c1c(Cl)nsnc1Oc1ccc(O)cc1 [Compound 35, 3-chloro-5-(4-hydroxyphenoxy)-4H-1,2,6-thiadiazin-4-one] |  |  | 0% | 11% | 100% | 100% |  |  |
| O=C(Nc1ccccc1)Oc1ccc(Oc2nsnc(Cl)c2=O)cc1 [Compound 37, 3-chloro-5-[4-(phenylaminocarbonyloxy)phenoxy]-4H-1,2,6,-thiadiazin-4-one] |  |  | 100% | 0% | 20% | 100% |  |  |
| CSc1ccc(Oc2nsnc(Cl)c2=O)cc1 [Compound 39, 3-chloro-5-[(4-methylthio)phenoxy]-4H-1,2,6,-thiadiazin-4-one] |  |  | 0% | 24% | 100% | 100% |  |  |
| C[S+]([O-])c1ccc(Oc2nsnc(Cl)c2=O)cc1 (stereo not drawn) [Compound 40, 3-chloro-5-[(4-methylsulfinyl)phenoxy]-4H-1,2,6,-thiadiazin-4-one] |  |  | 0% | 100% | 100% | 100% |  |  |
| CS(=O)(=O)c1ccc(Oc2nsnc(Cl)c2=O)cc1 [Compound 41, 3-chloro-5-[(4-methylsulfonyl)phenoxy]-4H--1,2,6-thiadiazin-4-one] |  |  | 0% | 100% | 100% | 100% |  |  |
| N#CCc1ccc(Oc2nsnc(Cl)c2=O)cc1 [Compound 46, 3-chloro-5-[(4-cyanomethyl)-phenoxy]4H--1,2,6-thiadiazin-4-one] |  |  | 0% | 40% | 87% | 100% |  |  |
| CC(=O)c1cccc(Oc2nsnc(Cl)c2=O)c1 [Compound 48, 3-(3-acetylphenoxy)-5-chloro-4H--1,2,6-thiadiazin-4-one] |  | 95% | 78% | 42% | 100% | 100% |  |  |
| COc1ccc(Cl)c(Oc2nsnc(Cl)c2=O)c1 [Compound 51, 3-chloro-5-[(2-chloro-5-methoxy)phenoxy]-4H--1,2,6-thiadiazin-4-one] |  |  | 0% | 31% | 91% | 100% |  |  |
| O=c1c(Cl)nsnc1Oc1ccc([N+](=O)[O-])cc1Cl [Compound 53, 3-chloro-5-(2-chloro-4-nitrophenoxy)-4H--1,2,6-thiadiazin-4-one] |  |  | 20% | 82% | 100% | 100% |  |  |
| Cc1ccc(Cl)c(Oc2nsnc(Cl)c2=O)c1 [Compound 56, 3-chloro-5-[(2-chloro-5-methyl)phenoxy]-4H--1,2,6-thiadiazin-4-one] |  |  | 0% | 67% | 100% | 100% |  |  |
